Target: T1, TRPC1:C4 (A498) (Homo sapiens, UniProt P48995+Q9UBN4)
T1 construct: endogenous in cells; host or cells: A498
Assay: [Ca2+]i recordings (Fura-2), endogenous TRPC1:C4 channels in A498 cells
Format: cell-based
Conditions: activator EA (100 nM)
Procedure: HEK T-REx cells expressing tetracycline-inducible TRPC4, TRPC5, TRPC5–C1,TRPC4–C1, and hPiezo1 have been described previously ([46], [57], [59], [78]). Cloning of TRPC3 has been described previously ([79]). To create cells stably expressing tetracycline-inducible TRPC3, HEK T-REx cells were transfected with pcDNA4/TO/hTRPC3 using jetPRIME transfection reagent (VWR) according to manufacturer’s instructions. After 48 h cells were put under antibiotic selection using 400 μg/ml zeocin and 10 μg/ml Blasticidin S (Invivogen)). Medium changes were carried out every 2 to 3 days to remove dead cells. Inducible HEK T-REx cells were cultured in Dulbecco’s modified Eagle medium GlutaMAX (Thermo Fisher Scientific) containing 10% fetal bovine serum (FBS; Merck), penicillin-streptomycin (100 units ml^−1/100 μg ml^−1), with the addition of blasticidin (10 μg ml^1; Invivogen) and zeocin (Invivogen) at either 400 μg ml^−1 (TRPC cell lines) or 200 μg ml^−1 (hPiezo1) to maintain the stable incorporation of the tetracycline repressor and the channel of interest, respectively. Expression of tetracycline-inducible proteins was induced by the addition of tetracycline (TRPC cell lines: 1 μg ml^−1, hPiezo1: 100 ng ml^−1; 24 h) to cell culture medium. […]
For Ca^2+ recording, electrophysiology, and cell viability experiments, data were analyzed using GraphPad Prism 9.0. […]

T1 sequence (Q9UBN4 whole entry): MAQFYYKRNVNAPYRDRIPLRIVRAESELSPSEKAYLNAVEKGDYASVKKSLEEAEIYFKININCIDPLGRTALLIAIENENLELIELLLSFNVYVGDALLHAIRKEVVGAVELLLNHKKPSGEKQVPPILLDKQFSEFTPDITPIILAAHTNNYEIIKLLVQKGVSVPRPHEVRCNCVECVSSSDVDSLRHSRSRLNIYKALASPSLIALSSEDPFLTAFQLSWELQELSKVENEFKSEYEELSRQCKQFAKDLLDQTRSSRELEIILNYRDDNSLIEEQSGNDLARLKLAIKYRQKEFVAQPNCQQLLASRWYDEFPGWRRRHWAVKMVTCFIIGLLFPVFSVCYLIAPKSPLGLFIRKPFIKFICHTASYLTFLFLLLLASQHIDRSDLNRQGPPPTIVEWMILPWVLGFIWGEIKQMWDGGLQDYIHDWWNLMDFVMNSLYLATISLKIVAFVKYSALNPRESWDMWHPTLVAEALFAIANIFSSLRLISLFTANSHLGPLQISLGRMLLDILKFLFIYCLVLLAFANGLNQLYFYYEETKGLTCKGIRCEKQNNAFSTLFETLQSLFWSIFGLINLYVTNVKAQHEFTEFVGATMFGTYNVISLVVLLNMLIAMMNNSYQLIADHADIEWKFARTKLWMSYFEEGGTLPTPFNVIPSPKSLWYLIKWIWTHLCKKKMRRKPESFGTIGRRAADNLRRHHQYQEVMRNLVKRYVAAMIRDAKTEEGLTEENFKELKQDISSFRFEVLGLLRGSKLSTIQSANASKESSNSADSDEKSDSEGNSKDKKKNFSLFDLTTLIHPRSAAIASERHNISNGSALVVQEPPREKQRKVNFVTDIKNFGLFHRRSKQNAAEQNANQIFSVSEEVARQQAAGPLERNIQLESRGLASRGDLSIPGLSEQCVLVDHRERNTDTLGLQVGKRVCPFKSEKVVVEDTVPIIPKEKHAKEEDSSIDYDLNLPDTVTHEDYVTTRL
T1 sequence (P48995 whole entry): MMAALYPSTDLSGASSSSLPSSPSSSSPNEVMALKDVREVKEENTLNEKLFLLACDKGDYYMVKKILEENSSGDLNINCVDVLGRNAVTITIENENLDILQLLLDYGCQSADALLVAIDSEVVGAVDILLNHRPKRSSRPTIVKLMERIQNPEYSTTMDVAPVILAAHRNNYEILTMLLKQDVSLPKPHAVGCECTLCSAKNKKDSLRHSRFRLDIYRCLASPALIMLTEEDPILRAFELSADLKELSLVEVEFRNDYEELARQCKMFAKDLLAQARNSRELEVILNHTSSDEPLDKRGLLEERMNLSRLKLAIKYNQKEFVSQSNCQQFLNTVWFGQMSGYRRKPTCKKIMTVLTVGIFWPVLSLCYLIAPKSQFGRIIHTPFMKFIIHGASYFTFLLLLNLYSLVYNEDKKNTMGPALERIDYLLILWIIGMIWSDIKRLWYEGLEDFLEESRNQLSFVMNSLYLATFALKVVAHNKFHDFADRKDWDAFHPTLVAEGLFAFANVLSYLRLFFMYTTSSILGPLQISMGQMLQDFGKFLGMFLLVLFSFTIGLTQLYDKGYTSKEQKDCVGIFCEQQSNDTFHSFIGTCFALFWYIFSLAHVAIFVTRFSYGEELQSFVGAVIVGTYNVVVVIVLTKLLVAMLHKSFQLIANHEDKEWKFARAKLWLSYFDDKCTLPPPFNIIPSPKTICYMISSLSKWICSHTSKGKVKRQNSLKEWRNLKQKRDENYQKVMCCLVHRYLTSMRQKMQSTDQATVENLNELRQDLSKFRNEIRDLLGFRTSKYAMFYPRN

## c1ccc(Cn2c(NCc3ccco3)nc3ccccc32)cc1 [AC1903]
A498
  Hill slope: -1.2
A498 cells
  IC50: 3.4 µM

From article PMC8808171, “Nonselective TRPC channel inhibition and suppression of aminoglycoside-induced premature termination codon readthrough by the small molecule AC1903” (The Journal of Biological Chemistry, 2022)
